Our source for the IC50 and EC50 values is paper PMC7856035 (Neuropharmacology, 2020).

SMILES strings stand for the structures.

For test [1], the target named is T1, 5-HT4 receptor (Rattus norvegicus, UniProt Q62758). Kind of test: block of […] 5-HT-induced PKA-RII phosphorylation in rat DRG neurons. Format: cell-based.
For test [2], the target named is T1, 5-HT4 receptor. Put plainly: agonist-induced PKA-RII phosphorylation in rat DRG neurons, reduced by GR113808. Format: cell-based.

T1 sequence (Q62758 whole entry): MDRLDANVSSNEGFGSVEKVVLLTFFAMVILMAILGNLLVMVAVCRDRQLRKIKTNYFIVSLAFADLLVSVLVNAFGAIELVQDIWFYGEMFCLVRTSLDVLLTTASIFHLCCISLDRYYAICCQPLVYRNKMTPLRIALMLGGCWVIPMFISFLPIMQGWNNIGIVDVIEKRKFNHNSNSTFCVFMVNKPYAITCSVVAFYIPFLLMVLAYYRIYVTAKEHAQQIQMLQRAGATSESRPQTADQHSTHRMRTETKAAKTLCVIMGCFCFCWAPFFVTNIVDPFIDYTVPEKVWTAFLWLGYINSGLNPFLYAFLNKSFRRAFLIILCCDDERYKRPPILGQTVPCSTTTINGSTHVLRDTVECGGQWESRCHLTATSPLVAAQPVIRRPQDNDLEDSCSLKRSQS

`Cn1cc(C(=O)OCC2CCN(CCNS(C)(=O)=O)CC2)c2ccccc21` [GR, GR113808] showed an IC50 on 5-HT4 receptor [1] of 5.55 nM. With `COCCCN1CCC(NC(=O)c2cc(Cl)c(N)c3c2OCC3)CC1` [Ppr, prucalopride], a half-maximal effect at 5-HT4 receptor [2] (EC50) was put at 10.2 nM.

The term IC50 denotes the concentration at which inhibition is half-maximal. Low values mean higher potency, high ones lower potency. What is called EC50 is the concentration at which the effect is half-maximal.
